Test results taken from US10918716B2, “Triple combination therapy for treating Crohn's disease” (Millennium Pharmaceuticals, Inc., priority 2016, dated 2021).

Experiments:
lymphotoxin (TNF-β) = molecular target: T1, lymphotoxin (TNF-β) (Homo sapiens, UniProt P01374); details: cited from earlier work
T1 sequence (P01374 35-205): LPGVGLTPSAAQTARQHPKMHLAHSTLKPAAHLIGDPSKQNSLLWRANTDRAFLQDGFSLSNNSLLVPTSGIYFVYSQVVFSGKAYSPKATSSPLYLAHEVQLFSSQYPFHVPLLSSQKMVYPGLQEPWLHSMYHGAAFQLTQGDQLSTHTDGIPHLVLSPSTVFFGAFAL

patients with CD = details: cited from earlier work
[1] = multiple-dose pharmacokinetics of vedolizumab, IV infusion, patients with UC; format: in vivo, human; details: dose range 2 to 10 mg/kg
Procedure: (§1) In previous studies, single-dose pharmacokinetics, pharmacodynamics (α4β7 receptor saturation), safety, and tolerability of vedolizumab were investigated over a dose range of 0.2 to 10 mg/kg in healthy volunteers (intravenous [IV] infusion) (unpublished data). After reaching peak concentrations, vedolizumab serum concentrations fell in a generally biexponential fashion until concentrations reached approximately 1 to 10 ng/mL. Thereafter, concentrations appeared to fall in a nonlinear fashion. The multiple-dose pharmacokinetics and pharmacodynamics of vedolizumab have been investigated following IV infusions of 0.5 and 2 mg/kg in patients with CD and infusion of 2, 6, and 10 mg/kg in patients with UC.

α4β7 receptor = molecular target: T2, α4β7 receptor (Homo sapiens, UniProt P13612+P26010); assay: pharmacodynamics (α4β7 receptor saturation) after multiple-dose administration; format: in vivo; details: following the initial dose
T2 construct: endogenous in cells; host or cells: lymphocytes of patients with CD or UC (in vivo)
Procedure: as §1

Substance	binding or inactivation of lymphotoxin (TNF-β) (lymphotoxin (TNF-β))	maintaining clinical remission (patients with CD; 40 mg weekly or every other week, patients with CD who responded to adalimumab induction therapy)	corticosteroid-sparing effects (patients with CD; patients with CD)	pharmacokinetics dose linearity [1]	α4β7 receptor saturation (α4β7 receptor)
Adalimumab	does not bind or inactivate	effective	corticosteroid-sparing effects		
vedolizumab: humanized antibody (Ig) G1 mAb directed against the human lymphocyte integrin α4β7; CAS 943609-66-3				generally linear	rapid and near complete
